# Several values for one entry are separate records, joined by “and”; a condition that tells them apart may be missing. Equal entries are not always repeated. Entries after “also recorded” stand apart in the source; their conditions may differ. Where two headings read alike, the source gives them in different places.
# Legend:
# Eg.TRPMPZQ = Eg.TRPMPZQ (Echinococcus granulosus, UniProt W6UVV9); test: cell-based; settings: HEK293, Ca2+ reporter, mean ± standard deviation; for Emax: read-out: Bmax, Eg.TRPMPZQ activation
# Sequence of Eg.TRPMPZQ (W6UVV9 entry or part of it): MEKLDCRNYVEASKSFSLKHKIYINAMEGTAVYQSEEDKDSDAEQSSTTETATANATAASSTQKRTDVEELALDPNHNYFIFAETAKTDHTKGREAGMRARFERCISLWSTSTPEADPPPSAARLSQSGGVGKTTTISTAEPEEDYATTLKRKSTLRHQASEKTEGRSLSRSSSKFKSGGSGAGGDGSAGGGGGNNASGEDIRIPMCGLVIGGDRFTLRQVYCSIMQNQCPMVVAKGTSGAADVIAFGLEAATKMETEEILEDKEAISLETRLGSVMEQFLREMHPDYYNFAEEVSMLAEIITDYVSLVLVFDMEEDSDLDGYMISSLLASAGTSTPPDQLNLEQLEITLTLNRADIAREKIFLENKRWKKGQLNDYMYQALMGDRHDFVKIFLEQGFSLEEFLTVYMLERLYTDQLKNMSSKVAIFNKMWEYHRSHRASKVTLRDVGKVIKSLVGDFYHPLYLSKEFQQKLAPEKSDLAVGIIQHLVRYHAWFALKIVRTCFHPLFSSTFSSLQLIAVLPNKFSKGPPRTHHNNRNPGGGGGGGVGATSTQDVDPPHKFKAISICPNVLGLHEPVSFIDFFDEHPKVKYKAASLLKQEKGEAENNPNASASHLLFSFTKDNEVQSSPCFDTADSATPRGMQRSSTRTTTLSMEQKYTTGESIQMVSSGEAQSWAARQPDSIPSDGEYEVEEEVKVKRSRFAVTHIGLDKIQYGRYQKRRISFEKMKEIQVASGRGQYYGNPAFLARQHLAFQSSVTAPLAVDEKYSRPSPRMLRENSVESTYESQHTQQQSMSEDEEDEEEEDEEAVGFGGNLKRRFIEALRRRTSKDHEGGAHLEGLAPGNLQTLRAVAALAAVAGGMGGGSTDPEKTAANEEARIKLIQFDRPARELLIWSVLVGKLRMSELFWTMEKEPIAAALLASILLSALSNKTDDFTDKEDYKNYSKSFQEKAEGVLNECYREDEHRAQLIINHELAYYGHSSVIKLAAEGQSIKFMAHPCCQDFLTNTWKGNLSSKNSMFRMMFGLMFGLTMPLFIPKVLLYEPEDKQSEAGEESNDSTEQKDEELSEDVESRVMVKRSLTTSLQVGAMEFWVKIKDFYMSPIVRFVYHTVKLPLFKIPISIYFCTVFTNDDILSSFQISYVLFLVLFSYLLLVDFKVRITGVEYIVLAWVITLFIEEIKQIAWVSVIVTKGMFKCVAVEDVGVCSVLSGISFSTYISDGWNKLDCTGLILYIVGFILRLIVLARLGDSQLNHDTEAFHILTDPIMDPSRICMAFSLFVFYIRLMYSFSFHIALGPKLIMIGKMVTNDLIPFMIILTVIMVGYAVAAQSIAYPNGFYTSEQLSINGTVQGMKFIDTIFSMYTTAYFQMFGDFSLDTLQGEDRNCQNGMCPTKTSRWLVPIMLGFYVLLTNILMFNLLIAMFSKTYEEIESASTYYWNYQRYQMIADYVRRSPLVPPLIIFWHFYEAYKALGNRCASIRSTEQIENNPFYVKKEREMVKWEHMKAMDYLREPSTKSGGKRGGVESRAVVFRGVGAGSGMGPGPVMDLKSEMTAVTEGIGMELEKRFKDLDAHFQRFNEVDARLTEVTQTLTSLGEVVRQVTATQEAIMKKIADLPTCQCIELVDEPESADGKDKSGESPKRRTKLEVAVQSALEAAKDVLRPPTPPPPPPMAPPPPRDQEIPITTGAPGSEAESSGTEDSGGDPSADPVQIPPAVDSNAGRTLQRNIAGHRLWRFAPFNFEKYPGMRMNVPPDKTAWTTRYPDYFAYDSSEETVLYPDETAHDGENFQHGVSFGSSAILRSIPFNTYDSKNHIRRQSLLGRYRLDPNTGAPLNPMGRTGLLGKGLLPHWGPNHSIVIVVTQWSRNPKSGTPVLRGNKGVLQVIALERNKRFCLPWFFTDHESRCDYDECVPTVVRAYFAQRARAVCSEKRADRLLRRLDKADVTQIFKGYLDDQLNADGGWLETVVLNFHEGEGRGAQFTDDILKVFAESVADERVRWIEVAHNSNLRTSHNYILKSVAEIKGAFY
# juvenile schistosomes = test: Microscopy analysis of juvenile morphology and motility (viability score 0-3); settings: 10 μM, 72 h; for number of juvenile worms with viability score 0 / number of juvenile worms with viability score 1 / number of juvenile worms with viability score 2 / number of juvenile worms with viability score 3: Table S1
# in vitro = settings: human, HepG2 cytotoxicity (CC50)
# Experimental: (§1) Next, we conducted a more detailed investigation by performing dose–response assays with each compound on HepG2 hepatic epithelial cells, as the liver is one of the major organs affected in intestinal schistosomiasis.
# (§2) More details are provided in the Supporting Information.
# (§3) Adult worm ex-vivo high-content assay
# (§4) Male and female worms were placed in 96-well microplates (one worm per well) and incubated […]
# (§5) to 72 hours. Brightfield timelapse images (100 images, 0.3-second intervals) were captured from each well before, immediately after, and every 24 hours following compound addition using an ImageXpress Micro Confocal High Content System equipped with a 2x objective. Image analysis was performed through a custom pipeline in CellProfiler software (v. 4.2.1, Windows OS).57 During analysis, the area of each worm and its displacement between consecutive image captures (i.e., images taken at successive time points) were measured using the parameters “Area” and “False Negative Rate” from the MeasureObjectSizeShape and MeasureObjectOverlap modules, respectively. These measurements were then modeled by a multilevel generalized linear statistical model. The effects of the experimental treatments on parasite motility were estimated with the integrated nested Laplace approximation (INLA) method, available in the INLA package of R (https://www.r-inla.org). The half-maximal inhibitory concentration (EC50) of each compound was calculated based on the worms' estimated motility using the […] 4-parameter logistic equation in GraphPad Prism version 9.0.0 for Windows (GraphPad Software, Boston, MA, USA; www.graphpad.com). […]
# (§6) either at a fixed concentration (10 µM) or across a range of concentrations (0.0001–300 µM), or with DMSO as a negative control. Two hours before the end of the experiment (t0), a resazurin solution (final concentration: 0.01 mg/mL) was added to each well and the first fluorescence […]
# (§7) reader. At the end of the incubation (t1), a second reading was performed. The fluorescence attributed solely to resorufin was measured by subtracting the fluorescence readings at t0 from those at t1. The results were expressed as percentual cell viability considering negative control
# [1] = tested on: HepG2 hepatic epithelial cells; test: in vitro; settings: for Selectivity Index (CC50/EC50), Male: HepG2 CC50 / male worm motility EC50, 48 h
# Experimental: as §1, §2, §3, §4, §5, §6, §7
# S. mansoni schistosomula = test: Roboworm high-content screening assay on schistosomula (motility and phenotype scores); assay type: cell-based, Schistosoma mansoni; settings: 25 μM, 72 h
# Experimental: All PZQ derivatives were synthesized in the racemic form and evaluated as such. The compounds were initially screened at 10 μM against S. mansoni schistosomula using the Roboworm high-content screening assay , and were declared hits or nonhits based on their effect on parasites’ motility and phenotype scores after 72 h of incubation. As none of the compounds were considered hits at this concentration, we performed a titration from 6.25 to 50 μM (Figure S27).
# DMSO was included as a negative control. Compounds were considered hits if both their motility and phenotype scores were lower than −0.35 and −0.15, respectively (region delimited by the dashed lines). In red, PZQ analogues selected for further analysis.
# For the collection of schistosomula, B. glabrata snails infected with S. mansoni were shed for 2 h under light at 26 °C. Cercariae were collected, mechanically transformed into schistosomula as previously described.
# DMSO (0.625%, v/v) was included as a negative control. Z′ values for the assay were calculated to be 0.542 for phenotype and 0.361 for motility. […]
# (§8) Auranofin (AUR) was included at 10 µM as positive control. DMSO was included as a negative control. Compounds were considered hits if both their motility and phenotype scores were lower than -0.35 and -0.15, respectively (region delimited by the […]
# Sm.TRPMPZQ = test: Ca2+ reporter assay in antagonist mode (block of PZQ activation of Sm.TRPMPZQ); assay type: cell-based, Schistosoma mansoni; settings: preincubation 1 nM-100 μM for 10 min, data not shown
# Experimental: The Ca^2+ reporter assay was performed using a Fluorescence Imaging Plate Reader (FLIPR) system, as described in the Supporting Information.
# as §3
# (§9) “Area” and “False Negative Rate” from the MeasureObjectSizeShape and MeasureObjectOverlap modules, respectively. These measurements were then modeled by a multilevel generalized linear statistical model. The effects of the experimental treatments on […]
# (§10) The half-maximal inhibitory
# (§11) Windows (GraphPad Software, Boston, MA, USA; www.graphpad.com). […]
# (§12) with DMSO as a negative control. […]
# (§13) reader. […] The fluorescence
# (§14) Untransfected HEK293 cells were used as a control.
# (§15) 10% fetal bovine serum (FBS). […]
# (§16) atmosphere containing 5% CO₂. Following incubation, the growth medium was removed and […]
# (§17) buffer containing 2.5 mM probenecid in HBSS (with Ca²⁺ and Mg²⁺), 20 mM HEPES, 0.3% BSA (Sigma, A7030), and 0.03% L-ascorbic acid (Sigma). Cells were incubated for 40 minutes at 37 °C and subsequently for 20 minutes at room temperature. A total of seven PZQ derivatives were tested, using racemic PZQ included as a positive control on each assay plate. Drug dilutions were prepared in assay buffer without dye and probenecid and dispensed into separate flat-bottom 384-well plates. Calcium flux measurements were performed at room temperature using a […]
# (§18) instrument (Molecular Devices). Baseline fluorescence was recorded for 20 seconds, followed by the addition of 5 µL of each drug solution, after which fluorescence was measured continuously for 250 seconds. […]
# as §8, with “schistosomula after 72h of incubation using the Roboworm high-content screening assay. Auranofin” for “Auranofin”
# (1 picture or pasted object on this page, not shown here)
# [2] = tested on: adult schistosomes (male and female worms); test: Adult worm ex vivo high-content image-based motility assay; assay type: cell-based, Schistosoma mansoni
# Experimental: Adult schistosomes’ motility was determined using a high-content assay previously developed by our group, , with images analyzed in CellProfiler software. More details are provided in the Supporting Information.
# as §3, §9, §10, §11
# with DMSO as a negative control.
# [3] = tested on: juvenile schistosomes (21 days p.i.); test: XTT juvenile viability assay; assay type: cell-based, Schistosoma mansoni; settings: 100 μM, 48 h
# Sm.TRPMPZQ (wild-type) = Sm.TRPMPZQ (wild-type) (Schistosoma mansoni, UniProt A0A5K4F0X5); test: Ca2+ reporter (FLIPR) activation assay, wild-type Sm.TRPMPZQ in HEK293 cells; assay type: cell-based
# Sequence of Sm.TRPMPZQ (wild-type) (A0A5K4F0X5 entry or part of it): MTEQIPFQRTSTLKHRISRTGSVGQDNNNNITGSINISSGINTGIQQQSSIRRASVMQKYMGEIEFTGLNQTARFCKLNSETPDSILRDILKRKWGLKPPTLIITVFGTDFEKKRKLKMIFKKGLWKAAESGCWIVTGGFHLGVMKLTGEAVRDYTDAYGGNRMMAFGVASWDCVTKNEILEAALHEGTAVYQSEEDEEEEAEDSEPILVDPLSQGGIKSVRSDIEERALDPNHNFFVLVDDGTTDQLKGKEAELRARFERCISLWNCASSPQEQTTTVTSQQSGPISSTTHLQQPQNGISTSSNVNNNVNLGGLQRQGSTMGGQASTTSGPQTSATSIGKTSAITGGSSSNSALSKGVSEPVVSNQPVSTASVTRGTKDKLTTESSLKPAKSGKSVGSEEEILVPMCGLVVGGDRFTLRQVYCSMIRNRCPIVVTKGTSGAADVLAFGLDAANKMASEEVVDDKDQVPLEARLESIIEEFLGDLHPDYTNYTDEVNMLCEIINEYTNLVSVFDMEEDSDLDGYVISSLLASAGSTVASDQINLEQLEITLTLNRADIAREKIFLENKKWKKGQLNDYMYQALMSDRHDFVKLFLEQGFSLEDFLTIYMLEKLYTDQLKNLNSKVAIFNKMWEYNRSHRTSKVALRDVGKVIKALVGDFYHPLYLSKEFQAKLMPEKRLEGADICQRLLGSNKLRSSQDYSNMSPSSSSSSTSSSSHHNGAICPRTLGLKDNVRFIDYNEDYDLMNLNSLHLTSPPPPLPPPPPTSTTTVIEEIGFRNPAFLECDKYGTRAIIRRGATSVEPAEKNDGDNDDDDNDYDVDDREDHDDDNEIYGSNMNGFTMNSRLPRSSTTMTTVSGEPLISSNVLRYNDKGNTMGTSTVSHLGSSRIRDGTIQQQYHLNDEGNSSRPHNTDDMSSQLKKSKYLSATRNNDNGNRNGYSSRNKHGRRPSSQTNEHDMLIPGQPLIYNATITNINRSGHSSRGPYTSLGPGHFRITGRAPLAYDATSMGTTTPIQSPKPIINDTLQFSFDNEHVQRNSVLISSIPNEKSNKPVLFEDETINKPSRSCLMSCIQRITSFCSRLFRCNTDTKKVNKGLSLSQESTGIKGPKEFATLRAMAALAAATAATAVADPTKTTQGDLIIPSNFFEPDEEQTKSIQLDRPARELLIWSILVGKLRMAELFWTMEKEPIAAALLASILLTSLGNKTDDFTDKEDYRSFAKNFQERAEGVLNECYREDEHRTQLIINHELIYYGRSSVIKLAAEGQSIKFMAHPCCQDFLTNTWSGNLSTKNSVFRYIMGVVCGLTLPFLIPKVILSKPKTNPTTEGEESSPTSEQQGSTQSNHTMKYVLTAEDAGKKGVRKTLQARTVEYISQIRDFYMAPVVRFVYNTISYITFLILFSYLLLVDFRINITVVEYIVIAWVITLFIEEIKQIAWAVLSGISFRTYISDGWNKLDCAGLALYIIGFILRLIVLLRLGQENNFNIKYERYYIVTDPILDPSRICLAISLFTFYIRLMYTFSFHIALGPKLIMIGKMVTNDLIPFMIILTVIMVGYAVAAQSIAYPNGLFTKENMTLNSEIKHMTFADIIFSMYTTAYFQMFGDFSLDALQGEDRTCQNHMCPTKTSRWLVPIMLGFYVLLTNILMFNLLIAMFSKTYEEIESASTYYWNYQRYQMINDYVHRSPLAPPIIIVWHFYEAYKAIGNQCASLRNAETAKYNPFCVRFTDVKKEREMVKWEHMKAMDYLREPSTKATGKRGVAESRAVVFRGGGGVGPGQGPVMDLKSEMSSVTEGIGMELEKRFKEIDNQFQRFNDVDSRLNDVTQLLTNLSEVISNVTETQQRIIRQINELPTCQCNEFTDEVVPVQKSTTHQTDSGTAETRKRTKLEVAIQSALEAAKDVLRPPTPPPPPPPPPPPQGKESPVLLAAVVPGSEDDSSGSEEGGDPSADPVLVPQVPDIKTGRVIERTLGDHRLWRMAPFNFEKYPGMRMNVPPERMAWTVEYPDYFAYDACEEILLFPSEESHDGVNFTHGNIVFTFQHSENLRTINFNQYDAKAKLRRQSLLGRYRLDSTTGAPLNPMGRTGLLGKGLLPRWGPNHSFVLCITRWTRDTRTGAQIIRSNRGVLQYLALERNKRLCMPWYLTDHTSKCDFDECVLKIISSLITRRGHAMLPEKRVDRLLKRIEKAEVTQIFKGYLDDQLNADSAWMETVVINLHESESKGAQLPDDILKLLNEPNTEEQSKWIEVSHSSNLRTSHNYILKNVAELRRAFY
# Experimental: (§19) The Ca^2+ reporter assay was performed using a Fluorescence Imaging Plate Reader (FLIPR) system, as described in the Supporting Information. […]
# as §10, §11, §12, §13, §14, §15, §16
# buffer containing 2.5 mM probenecid in HBSS (with Ca²⁺ and Mg²⁺), 20 mM HEPES, 0.3% BSA (Sigma, A7030), and 0.03% L-ascorbic acid (Sigma). Cells were incubated for 40 minutes at 37 °C and subsequently for 20 minutes at room temperature. […]
# prepared in assay buffer without dye and probenecid and dispensed into separate flat-bottom 384-well plates. Calcium flux measurements were performed at room temperature using a […]
# as §18
# Fh.TRPMPZQ = test: Ca2+ reporter (FLIPR) activation assay, Fh.TRPMPZQ in HEK293 cells; assay type: cell-based, Fasciola hepatica; settings: at the tested concentrations, data not shown
# Experimental: (§20) Finally, selectivity for Sm.TRPMPZQ was assessed by profiling responses on the F. hepatica (Fh.TRPMPZQ) and E. granulosus (Eg.TRPMPZQ) TRPMPZQ orthologs, as well as the schistosome TRPM paralog Sm.TRPMMCLZ, a distinct TRPM channel activated by meclonazepam. Meclonazepam is an anthelmintic benzodiazepine known for its toxicity to juvenile schistosome worms.
# as §19, §10, §11, §12, §13, §14, §15, §16, §17, §18
# Sm.TRPMMCLZ = test: Ca2+ reporter (FLIPR) activation assay, Sm.TRPMMCLZ in HEK293 cells; assay type: cell-based, Schistosoma mansoni; settings: at the tested concentrations, data not shown
# Experimental: as §20, §19, §10, §11, §12, §13, §14, §15, §16, §17, §18
# [4] = Schistosoma mansoni, 24 h, male adult worms, 24 h, single experiment or geometric mean, read-out: Male worm motility inhibition (EC50)
# [5] = Schistosoma mansoni, 48 h, male adult worms, 48 h, single experiment or geometric mean, read-out: Male worm motility inhibition (EC50)
# [6] = Schistosoma mansoni, 72 h, male adult worms, 72 h, single experiment or geometric mean, read-out: Male worm motility inhibition (EC50)
smiles,measurement,setting,value
O=C(C1CCCCC1)N1CC(=O)N2CCc3ccc(-n4cc(COc5ccccc5)nn4)cc3C2C1 (stereo not shown) [Compound 5c],EC50 for Eg.TRPMPZQ activation,Eg.TRPMPZQ,No signal
same,Emax,Eg.TRPMPZQ,7.63 ± 0.72%
same,activity against juvenile schistosomes (grouped score analysis),juvenile schistosomes,lacks activity
same,number of juvenile worms with viability score 0,juvenile schistosomes,19
same,number of juvenile worms with viability score 1,juvenile schistosomes,1
same,number of juvenile worms with viability score 2,juvenile schistosomes,4
same,number of juvenile worms with viability score 3,juvenile schistosomes,72
same,CC50 at 48 h,in vitro,88.1 µM
same,"Selectivity Index (CC50/EC50), Male",[1],<0.9
same,"Selectivity Index (SI), sex not specified","[1]; HepG2 vs adult worms, 48 h",< 1
same,hit classification (motility and phenotype scores),S. mansoni schistosomula,borderline
same,block of PZQ activation of Sm.TRPMPZQ (antagonist mode),Sm.TRPMPZQ,failed to impact subsequent responses to PZQ
same,EC50,"[2]; Schistosoma mansoni, 0 h, male adult worms, 0 h (immediately after addition), single experiment or geometric mean, read-out: Male worm motility inhibition (EC50)",> 100 µM
same,EC50,[2]; [4],> 100 µM
same,EC50,[2]; [5],> 100 µM
same,EC50,[2]; [6],> 100 µM
same,parasite metabolic activity compared to the DMSO control group (XTT),[3],no statistically significant differences
same,"Bmax, wild-type Sm.TRPMPZQ activation",Sm.TRPMPZQ (wild-type),No activity
same,EC50 for wild-type Sm.TRPMPZQ activation,Sm.TRPMPZQ (wild-type); 0.001 to 100 μM,failed to activate; also recorded: No activity
"Nc1ccc2c(c1)C1CN(C(=O)C3CCCCC3)CC(=O)N1CC2 (stereo not shown) [Compound 3, 9-NH2–PZQ]",activation of Fh.TRPMPZQ,Fh.TRPMPZQ,did not activate
same,Emax,Eg.TRPMPZQ,138 ± 13.2%
same,activation of Sm.TRPMMCLZ,Sm.TRPMMCLZ,did not activate
same,number of juvenile worms with viability score 0,juvenile schistosomes,38
same,number of juvenile worms with viability score 1,juvenile schistosomes,2
same,number of juvenile worms with viability score 2,juvenile schistosomes,14
same,number of juvenile worms with viability score 3,juvenile schistosomes,38
same,CC50 at 48 h,in vitro,~300 µM
same,"Selectivity Index (CC50/EC50), Female","[1]; HepG2 CC50 / female worm motility EC50, 48 h",>30
same,"Selectivity Index (CC50/EC50), Male",[1],>67
same,CC50,"[1]; human, 48 h",> 300 µM
same,EC50,"[2]; Schistosoma mansoni, 0 h, female adult worms, 0 h (immediately after addition), single experiment or geometric mean, read-out: Female worm motility inhibition (EC50)",8.36 µM
same,EC50,"[2]; Schistosoma mansoni, 24 h, female adult worms, 24 h, single experiment or geometric mean, read-out: Female worm motility inhibition (EC50)",9.6 µM
same,EC50,"[2]; Schistosoma mansoni, 24 h, female, 24 h, individual experiments, read-out: Female worm motility inhibition (EC50), values of independent experiments",9.04 µM
same,EC50,[2]; [4],5.4 µM
same,EC50,"[2]; Schistosoma mansoni, 48 h, female adult worms, 48 h, single experiment or geometric mean, read-out: Female worm motility inhibition (EC50)",9.9 µM
same,EC50,"[2]; Schistosoma mansoni, 48 h, female, 48 h, individual experiments, read-out: Female worm motility inhibition (EC50), values of independent experiments",9.36 µM
same,EC50,[2]; [5],4.5 µM
same,EC50,"[2]; Schistosoma mansoni, 48 h, male, 48 h, individual experiments, read-out: Male worm motility inhibition (EC50), values of independent experiments",3.94 µM
same,EC50,"[2]; Schistosoma mansoni, 72 h, female adult worms, 72 h, single experiment or geometric mean, read-out: Female worm motility inhibition (EC50)",11.2 µM
same,EC50,"[2]; Schistosoma mansoni, 72 h, female, 72 h, individual experiments, read-out: Female worm motility inhibition (EC50), values of independent experiments",8.77 µM
same,EC50,[2]; [6],3.5 µM
same,EC50,"[2]; Schistosoma mansoni, 72 h, male, 72 h, individual experiments, read-out: Male worm motility inhibition (EC50), values of independent experiments",3.8 µM
same,EC50,"[2]; female adult worms, 72 h, single experiment or geometric mean, read-out: Female worm motility inhibition (EC50)",11 µM
same,EC50,"[2]; female, 24 h, individual experiments, read-out: Female worm motility inhibition (EC50), values of independent experiments",10.2 µM
same,EC50,"[2]; female, 48 h, individual experiments, read-out: Female worm motility inhibition (EC50), values of independent experiments",10.5 µM
same,EC50,"[2]; female, 72 h, individual experiments, read-out: Female worm motility inhibition (EC50), values of independent experiments",14.3 µM
same,EC50,"[2]; male, 24 h, individual experiments, read-out: Male worm motility inhibition (EC50), values of independent experiments",8.1 µM and 5.61 µM and 3.44 µM
same,EC50,"[2]; male, 48 h, individual experiments, read-out: Male worm motility inhibition (EC50), values of independent experiments",4.56 µM
same,EC50,"[2]; male, 72 h, individual experiments, read-out: Male worm motility inhibition (EC50), values of independent experiments",3.29 µM and 3.58 µM
same,parasite metabolic activity compared to the DMSO control group (XTT),[3],significantly decreased
same,EC50,Sm.TRPMPZQ (wild-type); 0.001 to 100 μM,7.09 ± 0.18 µM
same,Emax,"Sm.TRPMPZQ (wild-type); read-out: Bmax, wild-type Sm.TRPMPZQ activation",90 ± 1.31%

# Reference: PMC12718081 (ACS Infectious Diseases, 2025)
